Results taken from a melting point compilation (Tetko et al.).
Residues, ends and D or L forms follow the SMILES beside them. *: point of attachment. Cyclohexanecarbonyl = O=C(C1CCCCC1)*; Bn = c1ccc(C*)cc1

| Compound | melting point |
| --- | --- |
| COC(=O)C(C)NC(=O)C(Cc1ccc(OCc2ccccc2)cc1)NC(=O)C(COCc1ccccc1)NC(=O)C(Cc1c[nH]c2ccccc12)NC(=O)C1CCCCC1 (stereo not given) (Cyclohexanecarbonyl-WS(Bn)Y(Bn)A-OMe; configuration not given here) | 181 to 183 °C |
| CCOC(=O)c1cnc2snc(C)c2c1N(C)S(=O)(=O)c1ccc(Oc2ccncc2)cc1 | 57 to 60 °C |
| CC(=O)OCC1OC(NC(=O)C2=CC=C(Cl)C(N)([N+](=O)[O-])C2)C(OC(C)=O)C(OC(C)=O)C1OC1OC(COC(C)=O)C(OC(C)=O)C(OC(C)=O)C1OC(C)=O (stereo not given) | 115 to 119 °C |
| CS(=O)(=O)c1ccc(-c2cc3c(cc2C(=O)c2cc4c(cc2-c2ccc(S(C)(=O)=O)cc2)OC(c2cc(F)cc(F)c2)CO4)OCC(c2cc(F)cc(F)c2)O3)cc1 (stereo not given) | 191 to 193 °C |
| ON=C(Cl)c1ccc(Cl)cc1 | 87.5 °C |
| CCOC(=O)C(C)c1cc(C)c(C(=O)c2ccc(Cl)cc2)n1C (stereo not given) | 88 to 90 °C |
| Nc1nc2sc(Cc3ccccc3)cc2c(=O)[nH]1 | 294 to 296 °C |
| CC(C)[C@H](NC(=O)N(C)Cc1ccccn1)C(=O)N[C@@H](Cc1ccccc1)C[C@H](OC(=O)CN(C)C)[C@H](Cc1ccccc1)NC(=O)[C@@H](NC(=O)N(C)Cc1ccccn1)C(C)C | 109 to 111 °C |
| CCCCCCCCCCCCCCCCCCOC(=O)CSCc1cc(CSCC(=O)OCCCCCCCCCCCCCCCCCC)c(O)c(CSCC(=O)OCCCCCCCCCCCCCCCCCC)c1 | 70 to 71 °C |
| O=P1(Oc2c(Br)c(Br)c(Br)c(Br)c2Br)OCC2(CO1)COP(=O)(Oc1c(Br)c(Br)c(Br)c(Br)c1Br)OC2 (stereo not given) | 324 to 326 °C |
| CCOC(=O)c1cnc2c(c(C)nn2C)c1NCS(=O)(=O)c1ccc(Oc2ccc(Cl)cc2)cc1 | 52 to 55 °C |
| CC(C)CC1C(=O)OC(Cc2ccccc2)C(=O)N(C)C(CC(C)C)C(=O)OC(C)CN(C)C(CC(C)C)C(=O)OC(Cc2ccccc2)C(=O)N(C)C(CC(C)C)C(=O)OC(C)CN1C (stereo not given) | 130 to 132 °C |
| C=CCCC(=O)Nc1c(I)c(C(=O)NC(COC(C)=O)COC(C)=O)c(I)c(C(=O)NC(COC(C)=O)COC(C)=O)c1I | 162 to 164 °C |
| N=C(NC(=O)OCc1ccccc1)N(CCCC(NC(=O)C(Cc1ccccc1)NC(=O)OCc1ccccc1)C(=O)Oc1cccc2ccccc12)C(=O)OCc1ccccc1 (stereo not given) | 125 to 130 °C |
| CN(C(=O)C(CC(Cc1ccccc1)C(N)=O)NC(=O)OCc1ccccc1)c1ccc(OCC(=O)NC(CC(N)=O)C(=O)NC(Cc2ccccc2)C(O)C(=O)N2CCCC2C(=O)NC(C)(C)C)cc1 (stereo not given) | 85 to 91 °C |
| COc1ccc(C(c2ccccc2)C(C)(C(=O)C(C)(C(c2ccccc2)c2ccc(OC)c(OC)c2)N2C(=O)c3ccccc3C2=O)N2C(=O)c3ccccc3C2=O)cc1OC (stereo not given) | 159 to 161 °C |
| CC(C)[C@H](NC(=O)N(C)Cc1csc(N)n1)C(=O)N[C@@H](Cc1ccccc1)[C@H](O)[C@@H](O)[C@H](Cc1ccccc1)NC(=O)[C@@H](NC(=O)N(C)Cc1csc(N)n1)C(C)C | 122 to 124 °C |
| CCCc1[nH]c2ccccc2c1C1(c2ccc(N(CC)CC)cc2OCCCCOc2cc(N(CC)CC)ccc2C2(c3c(CCC)[nH]c4ccccc34)OC(=O)c3ccccc32)OC(=O)c2ccccc21 (stereo not given) | 140 °C |
| COc1cc(OC)c(/C=C/C(c2ccc(OC)c(NC(C)C(=O)O)c2)S(=O)(=O)C(/C=C/c2c(OC)cc(OC)cc2OC)c2ccc(OC)c(NC(C)C(=O)O)c2)c(OC)c1 (stereo not given) | 176 to 180 °C |
| CCCCCCCCCCCCCCCCCCN(CCCCCCCCCCCCCCCCCC)C(=O)c1cc(NS(=O)(=O)c2cnc(Cl)c(Cl)c2)c2ccccc2c1O | 88 to 89 °C |

| Compound | melting point |
| --- | --- |
| COc1cc([N+](=O)[O-])cc(C(=O)C2CCCN(C(=O)c3cc([N+](=O)[O-])cc(OC)c3OC)NNN(C(=O)c3cc([N+](=O)[O-])cc(OC)c3OC)CCCC(C(=O)c3cc([N+](=O)[O-])cc(OC)c3OC)CC2)c1OC (stereo not given) | 232 to 235 °C |
| O=C(O)CCCOc1c(Cl)cccc1Cl | 66 to 67 °C |
| O=P(O)(O)CN(CP(=O)(O)O)CP(=O)(O)O | 215 °C |
| CC(COC(=O)CCSCCSCCC(=O)OCC(C)(Cc1cc(C(C)(C)C)c(O)c(C(C)(C)C)c1)Cc1cc(C(C)(C)C)c(O)c(C(C)(C)C)c1)(Cc1cc(C(C)(C)C)c(O)c(C(C)(C)C)c1)Cc1cc(C(C)(C)C)c(O)c(C(C)(C)C)c1 | 156 to 161 °C |
| Cc1cc(Cc2ccc(O)c(C(c3cc(C)c(O)cc3C)c3cc(C)c(O)cc3C)c2)c(O)c(Cc2ccc(O)c(C(c3cc(C)c(O)cc3C)c3cc(C)c(O)cc3C)c2)c1 | 276 °C |
| CC1(C)CC(Oc2nc(N(C3CC(C)(C)N(O)C(C)(C)C3)C3CC(C)(C)N(O)C(C)(C)C3)nc(N(C3CC(C)(C)N(O)C(C)(C)C3)C3CC(C)(C)N(O)C(C)(C)C3)n2)CC(C)(C)N1O | 233 to 236 °C |
| COc1ccc(C(=CC2(C=C(c3ccc(OC)cc3)c3ccc(N4CCCC4)cc3)OC(=O)c3c(Cl)c(Cl)c(Cl)c(Cl)c32)c2ccc(N3CCCC3)cc2)cc1 (stereo not given) | 159 to 161 °C |
| O=C(NCCCN1CCOCC1)c1ccc(-c2ccc(Br)cc2)o1 | 83 to 100 °C |
| CC(C)(C)c1cc(-c2nnc(NC(=N)N)o2)cc(C(C)(C)C)c1O | 223 to 224 °C |
| CCCCCCCCCCCCS(=O)(=O)c1c(S(=O)(=O)CCCCCCCCCCCC)c(S(=O)(=O)CCCCCCCCCCCC)c(S(=O)(=O)CCCCCCCCCCCC)c(S(=O)(=O)CCCCCCCCCCCC)c1S(=O)(=O)CCCCCCCCCCCC | 60 °C |
| Cn1nc(COC(=O)CCC(=O)OCc2nc(NCCCOc3cccc(CN4CCCCC4)c3)n(C)n2)nc1NCCCOc1cccc(CN2CCCCC2)c1 | 80 to 81.5 °C |
| CSc1ccc2c3c(cccc13)C(=O)N(O)C2=O | 301 to 306 °C |
| CCc1nc(OC)c(NC(=O)N2CCN(c3cc(C)cc(C)c3)CC2)cc1C(=O)NC(C)C(=O)Nc1cc(CO)cc(Nc2c3ccccc3nc3c(OC)cccc23)c1 (stereo not given) | 178 to 179 °C |
| FC(F)(F)C(F)(F)C(F)(F)C(F)(F)C(F)(F)C(F)(F)C(F)(F)C(F)(F)CCC1(CCC(F)(F)C(F)(F)C(F)(F)C(F)(F)C(F)(F)C(F)(F)C(F)(F)C(F)(F)F)c2cc(Br)ccc2-c2ccc(Br)cc21 | 130 to 131 °C |
| Cc1c(Cc2ccccc2)sc2nc(N)[nH]c(=O)c12 | 292 to 294 °C |
| [C-]#[N+]C1(C)CN(C(=O)Nc2ccc(C(F)(F)F)cc2)N=C1c1ccc(Cl)cc1 (stereo not given) | 171 to 173 °C |
| O=Cc1ccc(OC(F)F)c(O)c1 | 82 to 83 °C |
| CCSC(C)CC1CC(=O)C(=C(CC)NOCC=CCl)C(=O)C1 (stereo not given) | < 25 °C |
| COc1cc(OC)c(/C=C/C(c2ccc(OC)c(NCCCC(=O)O)c2)S(=O)(=O)C(/C=C/c2c(OC)cc(OC)cc2OC)c2ccc(OC)c(NCCCC(=O)O)c2)c(OC)c1 (stereo not given) | 86 to 88 °C |
| Cc1c(C2=CC(c3c(C)n(Cc4ccc(Cl)cc4)c4ccc([N+](=O)[O-])cc34)(c3c(C)n(Cc4ccc(Cl)cc4)c4ccc([N+](=O)[O-])cc34)OC2=O)c2cc([N+](=O)[O-])ccc2n1Cc1ccc(Cl)cc1 | 227 to 228 °C |

| Compound | melting point |
| --- | --- |
| CC(C)(C)c1cc2c(c(C(C)(C)C)c1)OP(OP1Oc3c(cc(C(C)(C)C)cc3C(C)(C)C)Cc3cc(C(C)(C)C)cc(C(C)(C)C)c3O1)Oc1c(cc(C(C)(C)C)cc1C(C)(C)C)C2 | 249 to 252 °C |
| CC(=O)OCC1OC(OC2C(COC(C)=O)OC(OC3C(COC(C)=O)OC(OCCBr)C(OC(C)=O)C3OC(C)=O)C(OC(C)=O)C2OC(C)=O)C(OC(C)=O)C(OC(C)=O)C1OC(C)=O (stereo not given) | 179 to 181 °C |
| CCC(CO)Sc1nc(Nc2ccc(S(C)(=N)=O)cc2)ncc1Br (mixture of isomers) | 175 to 180 °C |
| COc1cc(C(=O)NC2OC(COC(C)=O)C(OC3OC(COC(C)=O)C(OC(C)=O)C(OC(C)=O)C3OC(C)=O)C(OC(C)=O)C2OC(C)=O)ccc1Cl (stereo not given) | 106 to 110 °C |
| C=CC(=O)OCCCCCCOc1ccc(C(=O)Oc2ccc(OC(=O)c3ccc(OCCCCCCOC(=O)C=C)cc3)c(C(=O)OCCCCCCCCOC(=O)c3ccco3)c2)cc1 | 36 °C |
| CC(=O)OCC(COC(C)=O)NC(=O)c1c(I)c(NC(=O)OCC2CO2)c(I)c(C(=O)NC(COC(C)=O)COC(C)=O)c1I (stereo not given) | 228 to 230 °C |
| CC(CCOc1c(I)cc(I)cc1I)Oc1c(I)cc(I)cc1I (stereo not given) | 173 to 175 °C |
| CNC(=O)[C@@H](NC(=O)[C@@H](NC(=O)c1c(I)c(NC(C)=O)c(I)c(C(=O)O)c1I)C(C)C)C(C)C | 247 to 248 °C |
| C=CCOC1C(NC(C)=O)C(OCc2ccccc2)OC(COCc2ccccc2)C1OC1(N)OC(COCc2ccccc2)C(OCc2ccccc2)C(OCc2ccccc2)C1C(=O)OCC(Cl)(Cl)Cl (stereo not given) | 186 to 188 °C |
| O=C1C(COCc2ccccc2)N(Cc2ccccc2)CCN(Cc2ccccc2)C(COCc2ccccc2)C(=O)N(Cc2ccccc2)CCN1Cc1ccccc1 (stereo not given) | 86 to 87 °C |
| CC(C)[C@H](NC(=O)N(C)Cc1nc2ccccc2[nH]1)C(=O)N[C@@H](Cc1ccccc1)C[C@H](O)[C@H](Cc1ccccc1)NC(=O)[C@@H](NC(=O)N(C)Cc1nc2ccccc2[nH]1)C(C)C | 150 to 152 °C |
| NC(=O)OCCCN1CCN2c3ccccc3Cc3ccccc3C2C1 (stereo not given) | 160 to 161 °C |
| O=CCCCCCCOc1ccc(OCc2ccccc2)cc1 | 65 to 67 °C |
| CC(C#N)N1CCC(c2noc3cc(F)ccc23)CC1 (stereo not given) | 133 to 134 °C |
| Cc1ccc(S(=O)(=O)NNOC(C)C)cc1 | 112 to 113 °C |
| O=S(=O)(C(/C=C/c1c(F)c(F)c(F)c(F)c1F)c1ccc(I)cc1)C(/C=C/c1c(F)c(F)c(F)c(F)c1F)c1ccc(I)cc1 (stereo not given) | 178 to 181 °C |
| CC(C)C[C@H](NC(=O)[C@H](Cc1c[nH]cn1)NC(=O)[C@H](Cc1cccc2ccccc12)NC(=O)OCc1ccccc1)[C@@H](O)CC(=O)NN1CCN(c2cccc(C(F)(F)F)c2)CC1 | 179 to 181 °C |
| CCOC(=O)OC1=C(c2c(C)cc(C)cc2C)C(=O)NC12CCN(N(C)C)CC2 | 162 to 166 °C |
| CCCCCCCCCCOc1c(-c2nc3ccccc3s2)sc(-c2sc(-c3nc4ccccc4s3)c(OCCCCCCCCCC)c2OCCCCCCCCCC)c1OCCCCCCCCCC | 93.9 to 95 °C |
| COc1cc(C(=O)c2c(C)c(C(=O)OCc3ccccc3)c3cc(N(C)C)ccn23)ccc1[N+](=O)[O-] | 167 °C |
